Measurements reported in EP2181589A1, “Neurotoxic sterol glycosides” (Shaw, Christopher Ariel, priority 2008, dated 2010).
Entries after “also recorded” stand apart in the source; their conditions may differ. Marks after values point to notes of the source that are not given here.

Tests used:
Assay type in all cases: in vivo, CD-1 mice
[1] = system: Phosphorylated tau aggregates; assay: Tau immunohistochemistry; parameters: key to Phosphorylated tau aggregates: - = not present; + = present; settings: for Phosphorylated tau aggregates: SG-fed
Description: (§1) The synthetic SG was mixed with finely ground Purina Chow mouse pellets (Mouse Diet™, Purina) to create the experimental pellets with a SG content of 1000 µg per pellet. Dry materials were blended with a sterile silicon spatula. For every 5 g of standard feed, 2.5 mL of doubly-distilled water (dd)H2O was added and the dough was kneaded and round up into pellets. A single sterol glucoside containing pellet was placed in the feeding tray each morning before the addition of regular mouse chow (ad libitum). All experimental pellets were entirely consumed by the mice each day. Control mice were fed standard mouse chow pellets of identical weight with no additives. SG feeding was conducted daily for 15 weeks and mice were behaviorally monitored until sacrifice at 35 weeks (time point 1) or 52 weeks (time point 2).
(§2) Tissue-mounted slides were processed for fluorescence microscopy as follows: Sections were rinsed in coplin jars for 45 minutes at room temperature (RT) in three changes of PBS. Sections were then incubated at RT for 30 minutes in a blocking permeabilization solution made of 5% normal goat serum (NGS), 5% normal rabbit serum (NRS) or 5% BlokHen II (Aves Labs, Inc., Tigard, OR), 0.05% Triton X-100 and PBS. Subsequently, the blocking solution was tipped off and the slides were rinsed in PBS for 2 minutes. […]

Cytochrome c oxidase = Cytochrome c oxidase histochemistry; settings: for Cytochrome c oxidase activity: SG-fed vs control
Description: as §1
Tissue-mounted slides were processed for […] in a manner adapted from Seligman et al. (1968) and Wong-Riley (1979). Sections were rinsed in coplin jars for 15 minutes at RT in three changes of PBS and subsequently incubated with a media comprised of 50 mg of 3,3'-diaminobenzidine tetrahydrochloride (DAB) (DAB substrate system, Vector Laboratories, Burlingame, CA, USA), 90 mL 0.1M phosphate buffer, 20 mg cytochrome c (type III, Sigma-Aldrich Co., Oakville, ON, Canada), and 4 g of sucrose in a dish submerged in a water bath maintained at 37°C in the dark for 2 hours. The sections were monitored closely for the brown reaction product to appear within the tissue. Once a medium-brown color was achieved, slides were removed from the incubation media and rinsed for 15 minutes in three changes of PBS to stop the reaction. This was followed with a 2 minutes rinse in distilled water to remove residue from the slides. The slides were dried under a fume hood and cover-slipped with Entellen (Merck, Darmstadt, Germany).
The numbers of immunoreactive somata or inclusions were counted across the ventral horn of the spinal cord, across brain hemispheres, or per dorsal or ventral root with the 40x objective lens in a 600 µm / 600 µm area within region perimeters defined by a mouse brain atlas (2001). For each animal, eight cross-sections per spinal cord or brain region were studied. […] For quantification of the level of mitochondrial activity (cytochrome c oxidase labelling) in the lumbar spinal cord or tyrosine hydroxylase immunoreactivity in the substantia nigra pars compacta and striatal sections, images captured using the Motic B5 Professional Series 3.0 microscope (Motic Instruments Inc., Richmond, ON) and analyzed using Motic B5 Professional, Motic Images Advanced 3.0 (Motic Instruments Inc., Richmond, ON) were scanned into a TIFF format file and analysed using the NIH Image J 1.37 software to measure density levels of antibody labelling. […]

Active Caspase-3 = assay: Active caspase-3 labelling (apoptotic activity)
Description: as §1, §2

[2] = Body weights of SG-fed animals; settings: SG-fed vs control, over the study
Description: Five-month old male CD-1 mice (30.1-35.7 g, 7.5 cm - 8.8 cm) were purchased from Charles River (Wilmington, MA). Adult mice were chosen to mimic the mean age of onset of ALS-PDC (Kurland, 1988; Kurland et al., 1994). Thirty mice for the SG study were randomly divided into 2 groups (14 control and 16 experimental animals). All animals were housed singly in a virus-free barrier facility in a room maintained at 22°C under a 12 hour light/dark cycle. The mice were provided ad libitum access to food and water.
as §1

[3] = system: Dopaminergic cells Tyrosine Hydroxylase; assay: Tyrosine hydroxylase immunohistochemistry; settings: SG-fed animals, either time-point
Description: as §1, §2

[4] = SG-fed group over time, 35 to 52 wk

CCC(C=CC(C)C1CCC2C3CC=C4CC(OC5OC(CO)C(O)C(O)C5O)CCC4(C)C3CCC12C)C(C)C (stereo not shown) [SG]
Phosphorylated tau aggregates, animals affected ([1]; SG-fed group, time-point 2, 52 wk): 2/8
Phosphorylated Tau aggregates ([1]; SG-fed mice, none in non-treated mice): induced accumulation of phosphorylated tau; also recorded: observed
Phosphorylated tau aggregates ([1]; time-point 1, 35 wk): -
Phosphorylated tau aggregates ([1]; time-point 2, 52 wk): +
Cytochrome c oxidase Activity, Optical density (Cytochrome c oxidase; [4]): Optical density (SG-fed group over time): -36%**
Cytochrome c oxidase activity (Cytochrome c oxidase; 35 or 52 weeks): no significant differences
Cytochrome c oxidase activity (Cytochrome c oxidase; time-point 1, 35 wk): (ns)
Cytochrome c oxidase activity (Cytochrome c oxidase; time-point 2, 52 wk): (ns)
Apoptotic cells (Active Caspase-3; [4]): Apoptotic cells (SG-fed group over time) (ns)
number of apoptotic cells (Active Caspase-3; SG-fed vs control, 52 weeks (figure legend)): did not reach significance
Anti-active caspase 3 (Active Caspase-3; SG-fed vs control, time-point 2, 52 wk): (ns)
Body weights [2]: not significantly different; also recorded: normal weight gain
decrease in TH optical density, striata [3]: not significant
